Test results reported in patent US20050112573A1, “Method of detecting toxic substance” (priority 2001, published 2005).

System: yeast genes (level of expressed mRNA)
Test: DNA chip analysis of expressed mRNA of yeast genes after 2 h culture with a toxic chemical substance
Format: cell-based, Saccharomyces cerevisiae S288C
Details: for The level of expressed mRNA in the presence of chemical substance/ (ratio to absence of chemical substance): stress protein genes, DNA chip; for The level of expressed mRNA in the presence of chemical substance/ in its absence, gene YPR184W: yeast gene YPR184W
Experimental: Yeast (Saccharomyces cerevtisiae S288C (α SUC2mal mel gap2 CUP1)) were cultured at 25° C. on YPD medium (yeast extract 1%, polypepton 2%, glucose 2%). One of toxic chemical substances was added to the cell at logarithmic growth phase, and the cell was further cultured for two hours. Cell was cultured without any chemical substance in the same condition, and was used as control. Concentrations of the chemical substances were defined to inhibit the growth of the yeast but not lead to death.
After the completion of cultivation, the culture was centrifuged to collect the cells. To the cells, sodium acetate buffer (50 mM sodium acetate, 10 mM EDTA, 1% SDS) was added, and the mixture was shaken at 65° C. for five minutes, followed by returning to room temperature, and obtaining the supernatant, which procedure was repeated two times. To the supernatant, ½ amount of a solution of phenol/chloroform was added, and the mixture was centrifuged to give a supernatant, which was added with an equal amount of chloroform, and the mixture was centrifuged to give a supernatant. To the supernatant, an equal amount of isopropanol containing 0.3 M sodium acetate was added, and the mixture was allowed to stand at room temperature for 30 minutes, after which the mixture was centrifuged to give a sediment of the whole RNAs. Seventy % ethanol was added to the sediment, and the mixture was again centrifuged to give a sediment, which was then dried and dissolved in water. mRNA was isolated from the whole RNAs as followings. In view of the fact that a poly A chain is attached to the 3′ terminus of mRNA, a polynucleotide having a poly T structure which was immobilized on the surface of latex beads was used to trap the mRNA, and then the mRNA was washed and eluted with spine column (Oligotex-dT30<Super>mRNA Purification Kit, Takara). Reverse transcription of the mRNA was conducted with a reverse transcriptase (Super Script II Reverse Transcriptase; catalogue No. 18064-014, GibcoBRL) using fluorescence-labeled nucleotides to give cDNAs that were introduced with Cy3-dUTP or Cy5-dUTP during the reverse transcription.
The labeled cDNAs were dissolved in TE buffer (10 mM Tris-HCl/1 mM EDTA, pH8.0), and the solution was dropped on the DNA chip containing the whole genes of yeast (DNA Chip Research Inc. Japan) so that the cDNAs were hybridized on the DNA chip at 65° C. for over 12 hours. The fluoresces intensity of the DNA chip was read with a scanner, and the ratio relative to the fluorescence intensity resulting from the absence of chemical substance was estimated as the following, which is shown in Tables 1 to 9: [formula]
In the Tables, “Intensity” indicated in the rightmost column is a value of the level of expressed mRNA of each gene in control cells as divided by the average level of the expressions of the whole genes.

C=CC=O [(14), acrolein]
1.1: The level of expressed mRNA in the presence of chemical substance/The level of expressed mRNA in the absence of chemical substance (yeast gene YNL093W) | The level of expressed mRNA in the presence of chemical substance/The level of expressed mRNA in the absence of chemical substance (yeast gene YOR198C) | The level of expressed mRNA in the presence of chemical substance/ (in its absence), gene YOR251C (yeast gene YOR251C, ratio of DNA chip fluorescence intensity to that without chemical substance) | The level of expressed mRNA in the presence of chemical substance/ (ratio to absence), gene YPL040C (yeast gene YPL040C, mitochondria-located protein genes, 2 h culture with chemical) | The level of expressed mRNA in the presence of chemical substance/ (ratio to absence of chemical substance) (yeast gene YPL140C) | The level of expressed mRNA in the presence of chemical substance/ (ratio to absence of chemical substance) (yeast gene YPL194W)
1.2: The level of expressed mRNA in the presence of chemical substance/ (in its absence), gene YNL025C (yeast gene YNL025C, ratio of DNA chip fluorescence intensity to that without chemical substance) | The level of expressed mRNA in the presence of chemical substance/The level of expressed mRNA in the absence of chemical substance (yeast gene YOR036W) | The level of expressed mRNA in the presence of chemical substance/ (in its absence), gene YOR103C (yeast gene YOR103C, ratio of DNA chip fluorescence intensity to that without chemical substance) | The level of expressed mRNA in the presence of chemical substance/The level of expressed mRNA in the absence of chemical substance (yeast gene YOR259C) | The level of expressed mRNA in the presence of chemical substance/ (in its absence), gene YOR348C (yeast gene YOR348C, ratio of DNA chip fluorescence intensity to that without chemical substance)
1.3: The level of expressed mRNA in the presence of chemical substance/The level of expressed mRNA in the absence of chemical substance (yeast gene YNR010W) | The level of expressed mRNA in the presence of chemical substance/The level of expressed mRNA in the absence of chemical substance (yeast gene YOL164W) | The level of expressed mRNA in the presence of chemical substance/ (ratio to absence of chemical substance) (yeast gene YPL059W) | The level of expressed mRNA in the presence of chemical substance/The level of expressed mRNA in the absence of chemical substance (yeast gene YPL109C) | The level of expressed mRNA in the presence of chemical substance/ (ratio to absence of chemical substance) (yeast gene YPR005C) | The level of expressed mRNA in the presence of chemical substance/ in its absence, gene YPR184W (energy system protein genes, 2 h culture with the chemical, ratio to control without chemical) | The level of expressed mRNA in the presence of chemical substance/ in its absence, gene YPR184W (ratio of DNA chip fluorescence intensity to that without chemical substance)
0.8: The level of expressed mRNA in the presence of chemical substance/The level of expressed mRNA in the absence of chemical substance (yeast gene YNL006W) | The level of expressed mRNA in the presence of chemical substance/ (ratio to absence of chemical substance) (yeast gene YNL064C) | The level of expressed mRNA in the presence of chemical substance/ (ratio to absence of chemical substance) (yeast gene YNR076W) | The level of expressed mRNA in the presence of chemical substance/The level of expressed mRNA in the absence of chemical substance (yeast gene YOR124C) | The level of expressed mRNA in the presence of chemical substance/The level of expressed mRNA in the absence of chemical substance (yeast gene YOR288C) | The level of expressed mRNA in the presence of chemical substance/The level of expressed mRNA in the absence of chemical substance (yeast gene YPL089C) | The level of expressed mRNA in the presence of chemical substance/The level of expressed mRNA in the absence of chemical substance (yeast gene YPL154C)
1.4: The level of expressed mRNA in the presence of chemical substance/ (ratio to absence), gene YOL096C (yeast gene YOL096C, mitochondria-located protein genes, 2 h culture with chemical) | The level of expressed mRNA in the presence of chemical substance/ (in its absence), gene YOL096C (yeast gene YOL096C, ratio of DNA chip fluorescence intensity to that without chemical substance) | The level of expressed mRNA in the presence of chemical substance/ (ratio to absence), gene YPL134C (yeast gene YPL134C, mitochondria-located protein genes, 2 h culture with chemical)
1.9: The level of expressed mRNA in the presence of chemical substance/The level of expressed mRNA in the absence of chemical substance (yeast gene YNL333W)
1.0: The level of expressed mRNA in the presence of chemical substance/ (in its absence), gene YNR072W (yeast gene YNR072W, ratio of DNA chip fluorescence intensity to that without chemical substance) | The level of expressed mRNA in the presence of chemical substance/The level of expressed mRNA in the absence of chemical substance (yeast gene YOR117W) | The level of expressed mRNA in the presence of chemical substance/ (in its absence), gene YOR180C (yeast gene YOR180C, ratio of DNA chip fluorescence intensity to that without chemical substance) | The level of expressed mRNA in the presence of chemical substance/ (ratio to absence), gene YOR316C (yeast gene YOR316C, mitochondria-located protein genes, 2 h culture with chemical) | The level of expressed mRNA in the presence of chemical substance/The level of expressed mRNA in the absence of chemical substance (yeast gene YPL149W) | The level of expressed mRNA in the presence of chemical substance/The level of expressed mRNA in the absence of chemical substance (yeast gene YPR108W) | The level of expressed mRNA in the presence of chemical substance/ (in its absence), gene YPR165W (yeast gene YPR165W, ratio of DNA chip fluorescence intensity to that without chemical substance)
1.6: The level of expressed mRNA in the presence of chemical substance/ (in its absence), gene YPL148C (yeast gene YPL148C, ratio of DNA chip fluorescence intensity to that without chemical substance)
0.9: The level of expressed mRNA in the presence of chemical substance/The level of expressed mRNA in the absence of chemical substance (yeast gene YOL013C) | The level of expressed mRNA in the presence of chemical substance/ (in its absence), gene YOL108C (yeast gene YOL108C, ratio of DNA chip fluorescence intensity to that without chemical substance) | The level of expressed mRNA in the presence of chemical substance/ (in its absence), gene YOL116W (yeast gene YOL116W, ratio of DNA chip fluorescence intensity to that without chemical substance) | The level of expressed mRNA in the presence of chemical substance/ (ratio to absence of chemical substance) (yeast gene YOL161C) | The level of expressed mRNA in the presence of chemical substance/ (ratio to absence of chemical substance) (yeast gene YOR008C) | The level of expressed mRNA in the presence of chemical substance/The level of expressed mRNA in the absence of chemical substance (yeast gene YOR181W) | The level of expressed mRNA in the presence of chemical substance/ (in its absence), gene YOR363C (yeast gene YOR363C, ratio of DNA chip fluorescence intensity to that without chemical substance)
2.1: The level of expressed mRNA in the presence of chemical substance/The level of expressed mRNA in the absence of chemical substance (yeast gene YNR069C) | The level of expressed mRNA in the presence of chemical substance/The level of expressed mRNA in the absence of chemical substance (yeast gene YOR185C)
0.4: The level of expressed mRNA in the presence of chemical substance/The level of expressed mRNA in the absence of chemical substance (yeast gene YNL007C) | The level of expressed mRNA in the presence of chemical substance/ (ratio to absence of chemical substance) (yeast gene YOR010C)
0.6: The level of expressed mRNA in the presence of chemical substance/The level of expressed mRNA in the absence of chemical substance (yeast gene YOR355W) | The level of expressed mRNA in the presence of chemical substance/The level of expressed mRNA in the absence of chemical substance (yeast gene YOR383C)
1.8: The level of expressed mRNA in the presence of chemical substance/The level of expressed mRNA in the absence of chemical substance (yeast gene YOR261C) | The level of expressed mRNA in the presence of chemical substance/The level of expressed mRNA in the absence of chemical substance (yeast gene YPR103W)
0.7: The level of expressed mRNA in the presence of chemical substance/ (ratio to absence), gene YNL073W (yeast gene YNL073W, mitochondria-located protein genes, 2 h culture with chemical) | The level of expressed mRNA in the presence of chemical substance/ (in its absence), gene YNL192W (yeast gene YNL192W, ratio of DNA chip fluorescence intensity to that without chemical substance) | The level of expressed mRNA in the presence of chemical substance/ (ratio to absence of chemical substance) (yeast gene YOR009W) | The level of expressed mRNA in the presence of chemical substance/The level of expressed mRNA in the absence of chemical substance (yeast gene YOR132W)
2.2: The level of expressed mRNA in the presence of chemical substance/The level of expressed mRNA in the absence of chemical substance (yeast gene YOR157C)
